These are literature values, as cited in patent US20200225249A1, “COMPOSITIONS AND METHODS FOR THE DIAGNOSIS AND TREATMENT OF DISEASES OF THE LIVER” (Viscient Biosciences, Inc., priority 2019, published 2020).

Data set [1] has as its system primary neurons and astrocytes. The following applies: Braidy et al, 2011.
A further data set has as its system NASH patients. The following applies: clinical trial; Laurin J, et al., 1996.
Another data set deals with rat hepatocytes. The following applies: Shin M, et al., 1999.
The subject of another data set is QPRT. Particulars: rat hepatocytes; Shin M, et al., 1999.

With `O=C(O)c1ccccc1C(=O)O` [Phthalic acid, 1,2-Benzenedicarboxylic acid], the cell viability result in data set [1] is recorded as “reduced cell viability”.

`CCOC(=O)C(C)(C)Oc1ccc(Cl)cc1` [Clofibrate]: the “symptoms of NASH patients” value in the data set with NASH patients is recorded as “failed to improve the symptoms”. In the data set with rat hepatocytes, the “NAD+ levels” value is “increases NAD+ levels”. Besides, the QPRT expression result with QPRT is “stimulates QPRT expression”.
